Bridge positions count the residues as written; N and C are the ends. Peptide text beside a SMILES is read from it.
System: PMN infiltration in skin
Conditions: mouse, in vivo

C[C@@H](O)[C@H](NC(=O)[C@H](CO)NC(=O)[C@@H](N)Cc1ccc(O)cc1)C(=O)N[C@H]1CSC(=O)[C@H](Cc2ccccc2)NC(=O)[C@H](Cc2ccc(O)cc2)NC(=O)[C@H](Cc2ccc(O)cc2)NC(=O)[C@H](CO)NC1=O [S. caprae AIP] (H-YSTCSYYF; thioester 4-C)
magnitude of PMN infiltration by sterile injection, AIP vs vehicle: equivalent
